According to patent US7150969B2 (Rosetta Inpharmatics LLC, priority 2004, dated 2006):

Assays:
[1] = biological target: T1, ACC1 (Homo sapiens, UniProt Q13085); assay: 14CO2 fixation ACC activity assay, ACC1; format: biochemical; conditions: 37° C., 40 minutes, pH 7.5, 20 mM citrate; read-out: Km of ACC1 against substrate
T1 construct: to produce a full length ACC1 cDNA clone; V5-His (vector pcDNA5/FRT/V5-His TOPO) (C); made in house; host or cells: Sf9 insect cells (baculovirus, pBacPAK9)
Description: ACC1 clone from Example 2 was digested with AvrII and PmeI restriction enzymes and then subcloned into pBacPAK9 (BD Biosciences, Mountainview, Calif.) transfer vector, which was then digested with XbaI and StuI for generating baculovirus. The viral particles were generated in Sf9 insect cells using the reagents and instructions provided by the BacPAK Baculovirus Expression System (BD Biosciences, Mountainview, Calif.).
The Sf9 cells were grown in Grace's Insect Cell Culture Medium (Invitrogen, Carlsbad, Calif.) containing 10% fetal bovine serum, 0.1 mg/ml kanamicin, and 0.1% PLURONIC® F-68 (Invitrogen, Carlsbad, Calif.) at 30° C. and 5% CO2. […]
(§1) The following protein extraction and purification procedures were performed at 4° C. unless noted. […] The remaining proteins were eluted from the column by imidazole at 0–500 mM, and the elution fractions were monitored by spectrophotometry at 280 nm. ACC1, ACC2, and ACC2sv1 protein and activity in each fraction were measured.
(§2) ACC1, ACC2, and ACC2sv1 activity were measured by a standard ^14CO2 fixation assay that measures the incorporation of [^14C]bicarbonate into [^14C]malonyl-CoA, and separates the product from unused substrate at the end of the reaction through acidification, which serves to both quench the reaction and remove residual radiolabeled substrate as ^14CO2. […]

[2] = biological target: T2, ACC2 (Homo sapiens, UniProt O00763); assay: 14CO2 fixation ACC activity assay, ACC2; format: biochemical; conditions: 37° C., 40 minutes, pH 7.5, 20 mM citrate; read-out: Km of ACC2 against substrate
T2 construct: V5-His (vector pcDNA5/FRT/V5-His TOPO) (C); made in house; host or cells: mouse mammary carcinoma cell line FM-3A (pEF vector, G418 selection)
T2 sequence (O00763 whole entry): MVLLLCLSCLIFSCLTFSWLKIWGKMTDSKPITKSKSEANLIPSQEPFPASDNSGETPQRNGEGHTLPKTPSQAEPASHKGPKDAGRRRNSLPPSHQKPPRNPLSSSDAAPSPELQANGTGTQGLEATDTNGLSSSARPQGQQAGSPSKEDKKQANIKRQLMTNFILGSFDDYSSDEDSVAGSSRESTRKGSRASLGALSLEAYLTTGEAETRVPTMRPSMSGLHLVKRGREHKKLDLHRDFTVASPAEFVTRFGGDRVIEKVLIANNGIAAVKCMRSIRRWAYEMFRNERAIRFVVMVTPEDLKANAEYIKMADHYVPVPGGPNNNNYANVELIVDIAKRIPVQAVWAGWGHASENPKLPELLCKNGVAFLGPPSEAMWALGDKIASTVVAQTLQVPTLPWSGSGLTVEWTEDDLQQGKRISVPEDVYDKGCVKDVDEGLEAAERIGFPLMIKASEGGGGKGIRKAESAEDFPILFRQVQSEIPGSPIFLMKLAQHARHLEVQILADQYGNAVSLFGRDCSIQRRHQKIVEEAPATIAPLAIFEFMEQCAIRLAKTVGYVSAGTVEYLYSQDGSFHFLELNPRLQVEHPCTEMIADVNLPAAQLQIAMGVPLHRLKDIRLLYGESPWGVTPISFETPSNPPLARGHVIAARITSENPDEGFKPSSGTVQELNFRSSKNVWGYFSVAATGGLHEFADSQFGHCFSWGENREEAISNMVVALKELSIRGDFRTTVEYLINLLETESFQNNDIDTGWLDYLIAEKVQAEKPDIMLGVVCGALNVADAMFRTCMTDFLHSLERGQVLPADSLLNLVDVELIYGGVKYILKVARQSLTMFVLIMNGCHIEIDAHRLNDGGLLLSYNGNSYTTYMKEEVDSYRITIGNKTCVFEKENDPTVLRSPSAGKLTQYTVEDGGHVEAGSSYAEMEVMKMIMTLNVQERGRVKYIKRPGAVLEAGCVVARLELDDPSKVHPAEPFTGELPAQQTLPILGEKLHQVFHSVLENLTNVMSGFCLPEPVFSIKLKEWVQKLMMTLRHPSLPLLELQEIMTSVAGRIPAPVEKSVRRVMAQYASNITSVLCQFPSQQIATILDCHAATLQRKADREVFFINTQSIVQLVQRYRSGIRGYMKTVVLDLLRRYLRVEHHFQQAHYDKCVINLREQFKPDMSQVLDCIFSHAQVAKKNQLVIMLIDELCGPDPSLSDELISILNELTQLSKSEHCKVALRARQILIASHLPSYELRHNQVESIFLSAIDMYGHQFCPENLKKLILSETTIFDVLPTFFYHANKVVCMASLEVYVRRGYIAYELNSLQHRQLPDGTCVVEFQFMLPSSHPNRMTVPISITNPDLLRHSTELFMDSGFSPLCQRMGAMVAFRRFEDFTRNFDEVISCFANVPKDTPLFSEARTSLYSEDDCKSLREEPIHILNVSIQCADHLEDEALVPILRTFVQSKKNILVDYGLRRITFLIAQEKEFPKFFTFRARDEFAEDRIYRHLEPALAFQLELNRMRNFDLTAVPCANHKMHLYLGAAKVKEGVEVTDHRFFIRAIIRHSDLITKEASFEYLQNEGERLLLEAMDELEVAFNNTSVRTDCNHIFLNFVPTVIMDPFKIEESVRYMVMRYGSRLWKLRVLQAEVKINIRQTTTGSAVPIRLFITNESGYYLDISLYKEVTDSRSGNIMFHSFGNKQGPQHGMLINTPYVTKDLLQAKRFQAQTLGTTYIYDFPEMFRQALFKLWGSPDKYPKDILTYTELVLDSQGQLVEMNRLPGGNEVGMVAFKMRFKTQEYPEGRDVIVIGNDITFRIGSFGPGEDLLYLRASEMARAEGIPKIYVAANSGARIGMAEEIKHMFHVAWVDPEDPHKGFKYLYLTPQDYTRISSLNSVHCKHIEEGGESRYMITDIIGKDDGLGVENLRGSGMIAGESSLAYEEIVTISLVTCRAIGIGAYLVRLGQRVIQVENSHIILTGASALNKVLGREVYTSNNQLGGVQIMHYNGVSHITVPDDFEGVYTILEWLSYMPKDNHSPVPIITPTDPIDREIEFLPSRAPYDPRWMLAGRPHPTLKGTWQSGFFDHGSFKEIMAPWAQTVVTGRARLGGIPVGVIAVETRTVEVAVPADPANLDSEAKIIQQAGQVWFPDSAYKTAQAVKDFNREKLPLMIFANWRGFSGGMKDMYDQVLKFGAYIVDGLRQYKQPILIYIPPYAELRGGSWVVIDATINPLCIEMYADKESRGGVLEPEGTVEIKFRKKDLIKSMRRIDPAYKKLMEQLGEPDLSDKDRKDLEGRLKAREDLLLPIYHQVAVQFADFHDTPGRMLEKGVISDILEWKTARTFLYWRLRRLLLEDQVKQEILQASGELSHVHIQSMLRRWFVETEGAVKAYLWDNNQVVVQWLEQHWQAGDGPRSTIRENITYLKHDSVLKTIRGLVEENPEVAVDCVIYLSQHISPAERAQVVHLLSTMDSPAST
Excerpt: (§3) ACC2 and ACC2sv1 clones from cloning Method 2 of Example 2 were digested with AvrII and PmeI restriction enzymes and then subcloned into pEF cDNA expression vector (Invitrogen, Carlsbad, Calif.) which was digested by SpeI and EcoRV. The ACC2 and ACC2sv1 expression vectors were introduced into a mouse mammary carcinoma cell line FM-3A (RIKEN cell bank, #RCB0086) using the Lipofectaimine 2000 (Invitrogen, Carlsbad, Calif.) or Effectene Transfection Reagent (Qiagen, Hilden, Germany), according to manufacturer's instructions. […] ACC2 and ACC2sv1 protein levels were measured by Western blot analysis using HRP-conjugated streptavidin (Invitrogen, Carlsbad, Calif.). […]
as §1, §2

[3] = biological target: T3, ACC2sv1 (Homo sapiens, UniProt O00763, V2141I); assay: 14CO2 fixation ACC activity assay, ACC2sv1; format: biochemical; conditions: 37° C., 40 minutes, pH 7.5, 20 mM citrate; read-out: Km of ACC2sv1 against substrate
T3 construct: to yield a full-length ACC2sv1 clone; made in house; host or cells: mouse mammary carcinoma cell line FM-3A (pEF vector, G418 selection)
T3 sequence (O00763 1-2256 isoform O00763-3 V1939I): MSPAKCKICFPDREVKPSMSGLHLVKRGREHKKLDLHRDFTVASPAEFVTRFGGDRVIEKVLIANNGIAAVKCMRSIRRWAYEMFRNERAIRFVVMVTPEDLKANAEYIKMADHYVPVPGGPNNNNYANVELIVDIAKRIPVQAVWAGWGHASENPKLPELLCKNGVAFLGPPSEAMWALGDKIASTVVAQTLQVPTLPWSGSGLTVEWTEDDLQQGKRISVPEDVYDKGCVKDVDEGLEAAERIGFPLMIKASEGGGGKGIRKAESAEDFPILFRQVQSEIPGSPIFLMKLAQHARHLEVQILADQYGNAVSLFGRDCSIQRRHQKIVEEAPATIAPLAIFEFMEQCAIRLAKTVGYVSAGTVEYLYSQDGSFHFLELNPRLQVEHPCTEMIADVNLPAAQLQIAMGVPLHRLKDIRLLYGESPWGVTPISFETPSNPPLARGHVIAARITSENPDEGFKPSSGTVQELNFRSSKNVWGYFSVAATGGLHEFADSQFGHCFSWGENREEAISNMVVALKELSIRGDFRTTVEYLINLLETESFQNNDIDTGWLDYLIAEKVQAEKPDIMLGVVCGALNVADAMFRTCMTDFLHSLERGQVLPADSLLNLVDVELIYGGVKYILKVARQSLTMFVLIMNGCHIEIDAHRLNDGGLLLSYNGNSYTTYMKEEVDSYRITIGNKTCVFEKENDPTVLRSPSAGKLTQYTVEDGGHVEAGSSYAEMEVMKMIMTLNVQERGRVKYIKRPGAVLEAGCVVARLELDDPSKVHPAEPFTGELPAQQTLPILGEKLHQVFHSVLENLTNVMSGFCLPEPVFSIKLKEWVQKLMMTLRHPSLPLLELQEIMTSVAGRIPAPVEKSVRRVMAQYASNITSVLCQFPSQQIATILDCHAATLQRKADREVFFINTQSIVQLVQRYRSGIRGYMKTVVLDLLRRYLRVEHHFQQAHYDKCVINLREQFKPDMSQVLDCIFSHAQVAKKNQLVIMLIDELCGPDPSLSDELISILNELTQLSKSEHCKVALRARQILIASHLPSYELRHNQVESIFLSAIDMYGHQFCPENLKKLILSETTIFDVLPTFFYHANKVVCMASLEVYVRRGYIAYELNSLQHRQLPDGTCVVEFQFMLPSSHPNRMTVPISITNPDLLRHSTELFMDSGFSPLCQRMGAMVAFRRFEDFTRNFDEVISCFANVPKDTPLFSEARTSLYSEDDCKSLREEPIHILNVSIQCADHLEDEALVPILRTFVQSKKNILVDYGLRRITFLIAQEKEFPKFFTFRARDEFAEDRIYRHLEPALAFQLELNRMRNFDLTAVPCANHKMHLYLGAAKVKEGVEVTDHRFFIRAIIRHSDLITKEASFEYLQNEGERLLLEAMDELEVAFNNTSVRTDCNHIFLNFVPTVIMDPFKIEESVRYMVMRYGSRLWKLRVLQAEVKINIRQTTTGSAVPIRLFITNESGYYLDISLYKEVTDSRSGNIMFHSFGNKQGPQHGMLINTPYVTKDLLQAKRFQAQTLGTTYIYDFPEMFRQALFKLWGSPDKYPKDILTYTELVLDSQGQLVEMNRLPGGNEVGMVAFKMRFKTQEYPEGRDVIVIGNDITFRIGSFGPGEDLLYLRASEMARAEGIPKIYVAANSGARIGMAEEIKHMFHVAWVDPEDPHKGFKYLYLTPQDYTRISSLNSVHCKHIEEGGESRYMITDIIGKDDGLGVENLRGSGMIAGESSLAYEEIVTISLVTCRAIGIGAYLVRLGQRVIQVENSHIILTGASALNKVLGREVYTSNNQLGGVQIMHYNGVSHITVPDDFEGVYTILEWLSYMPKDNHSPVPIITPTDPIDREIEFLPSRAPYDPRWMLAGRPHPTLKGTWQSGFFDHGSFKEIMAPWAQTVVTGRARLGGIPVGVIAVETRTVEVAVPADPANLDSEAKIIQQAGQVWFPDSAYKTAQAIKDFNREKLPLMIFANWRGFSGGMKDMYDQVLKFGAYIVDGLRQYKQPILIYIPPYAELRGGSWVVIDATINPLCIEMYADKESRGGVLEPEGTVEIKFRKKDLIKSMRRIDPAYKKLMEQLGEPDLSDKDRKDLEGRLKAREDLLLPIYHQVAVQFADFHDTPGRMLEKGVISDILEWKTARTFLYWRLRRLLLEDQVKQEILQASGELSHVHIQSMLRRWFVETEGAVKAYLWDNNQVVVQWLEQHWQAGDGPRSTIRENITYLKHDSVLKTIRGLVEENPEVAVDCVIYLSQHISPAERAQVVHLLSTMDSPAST
Excerpt: as §3, §1, §2

[4] = test system: ACC1; conditions: cited from earlier work
[5] = test system: ACC2; conditions: cited from earlier work
[6] = test system: ACC; conditions: ESP 55016 converted to ESP 55016-CoA; cited from earlier work
[7] = rat model of diabetic dyslipidemia; cited from earlier work
[8] = test system: fatty acid synthesis and fatty acid oxidation; conditions: cited from earlier work
[9] = test system: ACCs from plants; conditions: cited from earlier work

Work on `Nc1ncnc2c1ncn2[C@@H]1O[C@H](COP(=O)(O)OP(=O)(O)OP(=O)(O)O)[C@@H](O)[C@H]1O` [ATP] yielded a Km [1] of 54 µM, a Km [2] of 44 µM and a Km [3] of 109 µM.
For `CCN(CC)C(=O)[C@@H]1CCCN(C2CCN(C(=O)c3c4ccccc4cc4ccccc34)CC2)C1` [CP-610431], the “Inhibition of ACC1” value [4] is listed as “inhibit” and the “Inhibition of ACC2” value [5] is listed as “inhibit”.
In the case of `O=C(c1c2ccccc2cc2ccccc12)N1CCC(N2CCC[C@@H](C(=O)N3CCOCC3)C2)CC1` [CP-640186], the “Inhibition of ACC1” value [4] is listed as “inhibit” and the “Inhibition of ACC2” value [5] is listed as “inhibit”.
For `CC(C)(CCCCCC(O)CCCCCC(C)(C)C(=O)SCCNC(=O)CCNC(=O)[C@H](O)C(C)(C)COP(=O)(O)OP(=O)(O)OC[C@H]1O[C@@H](n2cnc3c(N)ncnc32)[C@H](O)[C@@H]1OP(=O)(O)O)C(=O)O` (some centres unmarked) [ESP 55016-CoA], the “Inhibition of ACC activity” value [6] is given as “directly inhibits”.
In the case of `CC(C)(CCCCCC(O)CCCCCC(C)(C)C(=O)O)C(=O)O` [ESP 55016], the Serum lipid levels [7] is listed as “favorably alter”, the Fatty acid oxidation [8] is listed as “enhanced” and the Fatty acid synthesis [8] is listed as “inhibited”.
With `O=C(O)O` [HCO3] the Km [1] was 6470 µM, the Km [2] was 2890 µM and the Km [3] was 6510 µM.
For `CC(Oc1ccc(Oc2ccc(Cl)cc2Cl)cc1)C(=O)O` (centres unmarked) [diclofop], the “Inhibition of ACCs from plants” value [9] is given as “potent inhibitors”.
For `CC(Oc1ccc(Oc2ncc(C(F)(F)F)cc2Cl)cc1)C(=O)O` (centres unmarked) [haloxyfop], the “Inhibition of ACCs from plants” value [9] is given as “potent inhibitors”.
For `CCC/C(=N\OCC)C1=C(O)CC(CC(C)SCC)CC1=O` (centres unmarked) [sethoxydim], the “Inhibition of ACCs from plants” value [9] is given as “potent inhibitors”.
